The values below are quoted from earlier work in patent US20040142333A1, “Novel secreted proteins and their uses” (priority 2000, published 2004).

Where a SMILES comes first, the peptide text is derived from it. [ ]: non-standard residue; d: D form. The star is where a group is joined. 4Abz = Nc1ccc(C(=O)O)cc1; NHOH = ON*

Series [1] addresses T1, MMP-1 (Homo sapiens, UniProt P03956).
T1 sequence (P03956 100-469): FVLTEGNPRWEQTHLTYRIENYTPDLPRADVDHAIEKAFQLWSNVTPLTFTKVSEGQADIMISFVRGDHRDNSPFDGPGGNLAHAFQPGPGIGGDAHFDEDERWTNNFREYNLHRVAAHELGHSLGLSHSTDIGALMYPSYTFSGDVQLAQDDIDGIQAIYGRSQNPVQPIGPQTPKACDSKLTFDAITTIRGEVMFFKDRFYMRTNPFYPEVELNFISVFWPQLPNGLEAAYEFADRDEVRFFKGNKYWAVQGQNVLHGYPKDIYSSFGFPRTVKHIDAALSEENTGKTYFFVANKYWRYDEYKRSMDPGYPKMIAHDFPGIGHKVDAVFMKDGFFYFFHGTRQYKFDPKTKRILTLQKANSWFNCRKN
Particulars: read-out: IC50 against MMP-1.

The target of series [2] is MMP-8 (Homo sapiens, UniProt P22894). The following applies: read-out: IC50 against MMP-8.
Sequence of MMP-8 (P22894 101-467, species assumed): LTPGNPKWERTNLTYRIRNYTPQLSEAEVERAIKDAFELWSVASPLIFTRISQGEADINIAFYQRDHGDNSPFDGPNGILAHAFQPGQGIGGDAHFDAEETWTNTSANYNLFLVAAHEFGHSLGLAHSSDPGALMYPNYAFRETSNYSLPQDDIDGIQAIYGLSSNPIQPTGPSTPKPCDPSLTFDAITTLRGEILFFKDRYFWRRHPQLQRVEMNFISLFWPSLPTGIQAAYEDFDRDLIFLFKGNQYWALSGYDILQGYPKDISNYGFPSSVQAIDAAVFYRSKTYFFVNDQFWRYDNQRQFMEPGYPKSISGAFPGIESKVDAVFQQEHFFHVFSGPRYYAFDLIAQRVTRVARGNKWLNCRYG
Series [3] addresses MMP-9 (Homo sapiens, UniProt P14780). Particulars: read-out: IC50 against MMP-9.
For series [4], the target named is MMP-3 (Homo sapiens, UniProt P08254). Particulars: read-out: IC50 against MMP-3.
Sequence of MMP-3 (P08254 100-477, species assumed): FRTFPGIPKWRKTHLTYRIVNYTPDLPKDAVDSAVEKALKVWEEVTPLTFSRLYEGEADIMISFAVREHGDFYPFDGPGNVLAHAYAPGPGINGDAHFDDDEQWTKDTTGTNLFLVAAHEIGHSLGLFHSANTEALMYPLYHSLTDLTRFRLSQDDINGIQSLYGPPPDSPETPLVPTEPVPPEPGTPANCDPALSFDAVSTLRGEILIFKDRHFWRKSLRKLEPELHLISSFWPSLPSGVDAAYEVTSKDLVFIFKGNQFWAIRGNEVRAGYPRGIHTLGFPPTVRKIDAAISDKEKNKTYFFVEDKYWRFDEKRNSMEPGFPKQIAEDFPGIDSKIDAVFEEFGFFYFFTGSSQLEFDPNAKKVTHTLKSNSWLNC
The test system of series [5] is human metastatic melanoma (M24 cells).
Series [6] has as its system M24 cells. Particulars: murine metastasis model.

Sequence of MMP-9 (P14780 94-707, species assumed): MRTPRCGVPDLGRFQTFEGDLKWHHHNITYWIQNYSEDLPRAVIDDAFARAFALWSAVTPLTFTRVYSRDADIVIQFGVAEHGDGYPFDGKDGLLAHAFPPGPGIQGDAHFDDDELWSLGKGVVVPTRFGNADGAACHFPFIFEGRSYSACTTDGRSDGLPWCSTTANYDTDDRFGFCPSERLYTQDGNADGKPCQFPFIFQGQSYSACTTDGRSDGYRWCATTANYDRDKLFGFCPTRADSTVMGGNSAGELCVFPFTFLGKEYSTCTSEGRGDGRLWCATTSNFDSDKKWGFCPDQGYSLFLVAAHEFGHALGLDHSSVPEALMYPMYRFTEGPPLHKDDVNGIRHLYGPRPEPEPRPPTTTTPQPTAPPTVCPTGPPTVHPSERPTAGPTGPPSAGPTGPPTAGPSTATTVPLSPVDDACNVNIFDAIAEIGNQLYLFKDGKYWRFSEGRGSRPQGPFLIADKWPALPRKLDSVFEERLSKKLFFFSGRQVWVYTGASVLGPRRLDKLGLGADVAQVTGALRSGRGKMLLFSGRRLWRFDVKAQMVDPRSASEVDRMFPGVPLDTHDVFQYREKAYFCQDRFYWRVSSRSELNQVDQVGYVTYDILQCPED

Regarding `CC(C)C[C@@H](NC(=O)[C@@H]1CCCN1C(=O)CNC(=O)c1ccc(N)cc1)C(=O)N[C@H](C)C(=O)NO` [MMP inhibitor I] (H-[4Abz]GP[dL][dA]-{NHOH}), the IC50 – broadly, the concentration at which inhibition is half-maximal – was 1 µM in series [1], 1 µM in series [2], 30 µM in series [3] and 150 µM in series [4].

On to contortrostatin, for which, in series [5], the “cell adhesion to type I collagen, vitronectin, and fibronectin” value was “inhibit”. Moreover, the “lung colonization of M24 cells” value in series [6] is reported as “inhibits lung colonization”.
